{"source": "a melting point compilation (Tetko et al.; mined from patent text by program, amines drawn as free bases though some values may be those of a salt)", "data": [{"units": {"melting point": "°C"}, "values": [{"smiles": "CC(C)(C)c1ccc(C(=O)n2c3cc(O)c(O)cc3c3c(Br)cc(O)c(O)c32)cc1", "melting point": "> 280"}, {"smiles": "CC(C)(C)C(=O)Nc1n[nH]c(C(C)(C)C)c1Cl", "melting point": "156 to 158"}, {"smiles": "COc1ccc(C=CC2=NNC(C)Cc3cc4c(cc32)OCO4)cc1OC", "note": "(stereo not drawn)", "melting point": "166 to 168"}, {"smiles": "N#Cc1ccc(Cc2nc[nH]n2)cc1", "melting point": "151 to 153"}, {"smiles": "CC(C)c1nsc(N=CN(C)C)c1C#N", "melting point": "95 to 97"}, {"smiles": "CCOC(=O)c1ccc(OCC(=O)c2ccc3c(c2)C(C)(C)CCC3(C)C)cc1", "melting point": "105 to 107"}, {"smiles": "CCCn1nc2c(N)nc3ccccc3c2c1CC(C)(C)NS(C)(=O)=O", "melting point": "130 to 139"}, {"smiles": "CC(CO)(CO)NS(=O)(=O)c1cccc(NC(=O)c2cnn3c(C(F)(F)F)cc(-c4ccc(C(F)(F)F)cc4)nc23)c1", "melting point": 248}, {"smiles": "COc1c(Cl)c(Cl)c2c(-c3ccccc3F)noc2c1Cl", "melting point": "120 to 140"}, {"smiles": "Cc1cc(-c2nncc3c(C(C)(C)C)c(OCc4ccccn4)nn23)no1", "melting point": "175 to 178"}, {"smiles": "CCOC(=O)c1ncn(-c2nncs2)c1S(=O)(=O)NC(=O)Nc1nc(OC)cc(OC)n1", "melting point": "169 to 171"}, {"smiles": "O=CN(O)C(CCO)CS(=O)(=O)c1ccc(-c2ccc(C(F)(F)F)cc2)cc1", "note": "(stereo not drawn)", "melting point": "186 to 189"}, {"smiles": "O=C(c1ccc(F)cc1)c1cccc(C#Cc2ccc(F)cc2)c1", "melting point": "127 to 128"}, {"smiles": "Cc1ccc(S(=O)(=O)N2CCCC2c2ccco2)cc1", "note": "(racemic)", "melting point": 58}, {"smiles": "N#CCc1ccc(-c2onc3ccccc23)cc1", "melting point": "118 to 121"}, {"smiles": "C#CCOc1nc(NN)c(C(F)(F)F)cc1Cl", "melting point": "98 to 102"}, {"smiles": "O=C(CBr)CCCCCCN1C(=O)c2ccccc2C1=O", "melting point": "83 to 86"}, {"smiles": "c1ccc2c(c1)CNc1ccccc1C2", "melting point": "117 to 122"}, {"smiles": "COc1ccc2c(c1)sc1[nH]c(=O)c(=O)[nH]c12", "melting point": "> 300"}, {"smiles": "Cn1ccnc1SCc1nc(-c2ccc3c(c2)OCO3)c2cc3c(cc2n1)OCO3", "melting point": "155 to 160"}, {"smiles": "CC(C(=O)O)c1ccc(CC2CCCC2=O)cc1", "note": "(stereo not drawn)", "melting point": "108 to 111"}, {"smiles": "O=S(=O)(CCl)c1cccc2ccccc12", "melting point": "103 to 105"}, {"smiles": "CCc1cccc2c1[nH]c1c2ccc2cc[nH]c21", "melting point": "256 to 258"}, {"smiles": "COc1ccc2c(n1)c(CCNC(=O)c1ccco1)c1n2CCCc2ccccc2-1", "melting point": "70 to 71"}, {"smiles": "N#CCc1c(-c2ccccc2)sc2ccc(Cl)cc12", "melting point": "158 to 160"}, {"smiles": "O=[N+]([O-])c1ccc(OC2(c3ccccc3)CCNCC2)cc1", "melting point": "137 to 138"}, {"smiles": "N#CC=Cc1ccc(Cl)cc1C(=O)c1ccccc1Cl", "melting point": "137 to 139"}, {"smiles": "CON(C)C(=O)[C@H]1CC[C@H](NC(=O)OC(C)(C)C)CC1", "melting point": "130 to 140"}, {"smiles": "Cc1ccccc1-c1nc(-c2cccc(Cl)c2)nn1C", "melting point": "77 to 78"}, {"smiles": "CC(=O)NCC1CN(c2ccc(S(C)=O)c(F)c2)C(=O)O1", "note": "(stereo not drawn)", "melting point": "143 to 145"}, {"smiles": "CCOC(=O)c1cn(C2CC2)c2nc(N3CC(C)C(N)C3)c(F)cc2c1=O", "note": "(stereo not drawn)", "melting point": "148 to 150"}, {"smiles": "COc1ccc(NC(=O)NCCCOc2cccc(CN3CCCCC3)c2)cc1", "melting point": "111 to 112"}, {"smiles": "CCCn1nnc2c(Nc3ccc(C(C)C)cc3Br)nc(C)nc21", "melting point": "80 to 81"}, {"smiles": "CCCn1c(=O)c2c(nc(/C=C/c3ccc(OC(=O)c4ccccc4)c(OC)c3)n2C)n(CCC)c1=O", "melting point": "156 to 157"}, {"smiles": "Cc1cc(C(=O)N2Cc3ccc(C(=O)N(C)CC(O)CO)n3Cc3ccccc32)ccc1-c1ccccc1C(F)(F)F", "note": "(stereo not drawn)", "melting point": "169 to 172"}, {"smiles": "CCCCCCCCCCCCCCCCCCOC(=O)CCCCCCCCCCCCCCCCC", "melting point": "47 to 55"}, {"smiles": "CN1Cc2c(C(=O)O)ncn2-c2ccccc2C1=O", "melting point": 287}, {"smiles": "CCOc1nc(NC(C)C)c2cscc2n1", "melting point": "155 to 156"}, {"smiles": "CC(C)CC1(CC(=O)NOCc2ccccc2)CC(=O)N(CCc2ccccc2)C1=O", "note": "(stereo not drawn)", "melting point": "115 to 117"}, {"smiles": "N#Cc1c(-c2cccc(N)c2)cc(-c2ccccc2O)nc1NC(=O)c1ccc(Cl)s1", "melting point": "259 to 260"}, {"smiles": "CCOC(=O)C1Cc2ccc(N(C)C)cc2NC1=O", "note": "(stereo not drawn)", "melting point": "181 to 182"}, {"smiles": "COc1cc(N)c(Cl)cc1C(=O)NCC1CCN(CCCCCC(=O)c2ccc(Cl)cc2)CC1", "melting point": "156 to 158"}, {"smiles": "OCc1csc(N2CCSCC2)n1", "melting point": "83 to 84"}, {"smiles": "COc1cccc(C(=O)c2ccc([N+](=O)[O-])c(C=O)c2)c1", "melting point": 84}, {"smiles": "COc1cc(-c2cccs2)cc(OC)c1/C=C/C(=O)c1ccc(C(=O)O)cc1", "melting point": "256 to 258"}, {"smiles": "CC(C)(C)OC(=O)CN1CCN2C(=O)N(c3cc(Cl)cc(Cl)c3)C(=O)C2(Cc2ccc(Br)cc2)C1", "note": "(stereo not drawn)", "melting point": 74.7}, {"smiles": "CC1=C(C(=O)OC(C)C)C(c2cccc([N+](=O)[O-])c2)N(C(=O)OCc2ccccc2)C(=O)N1", "note": "(stereo not drawn)", "melting point": "158 to 159"}, {"smiles": "COc1ccccc1COc1ccc(S(=O)(=O)c2cnc(C)nc2Nc2c(C)cc(C)cc2C)cc1", "melting point": "200 to 202"}, {"smiles": "CC(=O)OC1CSC(Oc2cncc(-c3ccoc3)c2)C(OC(C)=O)C1OC(C)=O", "note": "(stereo not drawn)", "melting point": 127}, {"smiles": "CCOC(=O)Cc1ccc(NC(=O)Nc2ccccc2)cc1", "melting point": "153 to 155"}, {"smiles": "CC(=O)c1ccc(OCCC2CCN(c3cc(Cl)nnc3Cl)CC2)cc1", "melting point": "99 to 100"}, {"smiles": "CCOC(=O)C(=NO)c1ccc(OC)cc1", "melting point": "81 to 82"}, {"smiles": "CO/C(=C\\C=C\\c1cc2ccccc2[nH]1)C(=O)O", "melting point": "189 to 190"}, {"smiles": "CNc1ccc(N2CCOC2=O)cc1[N+](=O)[O-]", "melting point": 192}, {"smiles": "COc1ccc(C(=O)NCCSSCCNC(=O)c2ccc(OC)cc2)cc1", "melting point": "136 to 138"}, {"smiles": "O=C(O)/C=C1\\CCc2c(F)cc(Cl)cc21", "melting point": "254 to 256"}, {"smiles": "COc1cc(C)ccc1S(=O)(=O)NC(=O)C(c1ccc2c(c1)OCO2)c1cn(C)c2cc(C(=O)O)ccc12", "note": "(stereo not drawn)", "melting point": 199}, {"smiles": "COc1c(-c2ccc3cc(NS(C)(=O)=O)ccc3c2)cc(-n2ccc(=O)[nH]c2=O)cc1-c1ccc(C)o1", "melting point": "174 to 178"}, {"smiles": "CCOC(=O)N(c1ccccc1N)c1cccc(C)c1C", "melting point": "95 to 97"}, {"smiles": "CCOC(=O)C(C#N)=CNc1ccc([N+](=O)[O-])cc1", "melting point": "227 to 228"}, {"smiles": "Cc1cc(C)nc(-n2ccnc2S(=O)Cc2ccccc2NC=O)c1", "note": "(stereo not drawn)", "melting point": "160 to 162"}, {"smiles": "CCC(C)[C@H](NC(=O)OCC1CCCC1)C(=O)N[C@@H](Cc1ccccc1)C(=O)CSCc1ccco1", "note": "(stereo partly drawn)", "melting point": "77 to 78"}, {"smiles": "CC(=O)Nc1cc(-c2sc(-c3ccc(S(C)(=O)=O)cc3)nc2-c2cccc(Cl)c2)ccn1", "melting point": "216 to 217"}, {"smiles": "N#Cc1cc(C=O)cnc1Br", "melting point": "105 to 106"}, {"smiles": "CN1C(=O)CN(NC(=O)CNC(=O)OCc2ccccc2)C(c2ccccc2)c2cc(Cl)ccc21", "note": "(stereo not drawn)", "melting point": "184 to 190"}, {"smiles": "C=COCCONC(=O)c1ccc(F)cc1Nc1ccc(I)cc1F", "melting point": 104}, {"smiles": "Cc1c[nH]c2c1C(=O)CC(c1ccccc1Cl)C2", "note": "(stereo not drawn)", "melting point": "201 to 209"}, {"smiles": "CCc1cc2c(cc1O)CCC1C2CCC2(C)C(CCO[Si](c3ccccc3)(c3ccccc3)C(C)(C)C)CCC12", "note": "(stereo not drawn)", "melting point": "134 to 135"}, {"smiles": "CCOc1cc2cc(CO)c(CO)c(-c3ccncc3)c2cc1OCC", "melting point": "159 to 161"}, {"smiles": "COC(=O)c1cc(C(F)(F)F)cc(OCc2ccccc2)c1OCc1ccccc1", "melting point": "78 to 79"}, {"smiles": "O=C(O)c1ccccc1NCc1ccncc1", "melting point": 208}, {"smiles": "COc1ccc2c(c1OC)CCN(Cc1ccccc1)Cc1cc3c(cc1C=C2)OCO3", "melting point": "129 to 132"}, {"smiles": "COC(=O)C(C(=O)c1ccc(Cc2cn(C)c3ccc(NC(=O)OC4CCCC4)cc23)c(OC)c1)S(=O)(=O)c1ccccc1", "note": "(stereo not drawn)", "melting point": "65 to 70"}, {"smiles": "CC(C)N1CCN(c2ccc(-c3[nH]nc4c3C(=O)c3c(NC(=O)NN5CCN(C)CC5)cccc3-4)cc2)CC1", "melting point": 272}, {"smiles": "O=C(O)c1ccc(OCCCCCCC2CC2)c(F)c1F", "melting point": "100 to 108"}, {"smiles": "CC(=O)Nc1ccnc(-c2ccncc2)n1", "melting point": "218 to 220"}, {"smiles": "CNc1c(C)c(C)c(OC(C)=O)c(C)c1N", "melting point": "113 to 116"}, {"smiles": "COc1cc(NC(=O)OC(C)(C)C)cc(OC)c1SC", "melting point": "124 to 126"}, {"smiles": "CN1CCC(=C2c3c(ccn3C)CCn3cnnc32)CC1", "melting point": 214}, {"smiles": "N#CCCSCc1nccc(N)n1", "melting point": "106 to 109"}, {"smiles": "COc1ccc(CC(=O)c2cc(OC)cc(OC)c2)cc1", "melting point": "93 to 94"}, {"smiles": "COc1ccc(N(Cc2cc(C(C)(C)C)c(O)c(C(C)(C)C)c2)S(=O)(=O)c2cccs2)cn1", "melting point": "96 to 97"}, {"smiles": "O=C(NCc1ccn(C2=CC3=C(CC2)CCc2[nH]c(=O)c(=O)n(O)c23)c1)Nc1ccccc1", "melting point": "> 250"}, {"smiles": "CC(C)(C)CC(C)(C)c1cc(Cc2cc(C(C)(C)CC(C)(C)C)cc(C(C)(C)CC(C)(C)C)c2O)c(O)c(-n2nc3ccccc3n2)c1", "melting point": 174}, {"smiles": "Cc1ccc(-n2nc(C(C)(C)C)cc2NC(=O)Nc2ccc(N(C)c3ccncc3)c3ccccc23)cc1", "melting point": "174 to 177"}, {"smiles": "COc1ccc(-c2[nH]nc3c2C(=O)c2c(NC(=O)Cc4ccc5c(c4)OCO5)cccc2-3)cc1", "melting point": 297}, {"smiles": "O=C(NC1CCCC1)c1ccc(CCN2CC=C(c3c[nH]c(-c4ccc(F)cc4)c3-c3ccncc3)CC2)cc1", "melting point": "192 to 195"}, {"smiles": "Cc1ncn(Nc2ccc(F)cc2)c1-c1ccccc1", "melting point": 155}, {"smiles": "CC(C)CNC(=O)NS(=O)(=O)c1ccc(CCNC(=O)N2CCCCC2=O)cc1", "melting point": "179 to 181"}, {"smiles": "CCOC(=O)N1CC[C@H](N(Cc2ccccc2)Cc2ccccc2)[C@H](OC)C1", "note": "(relative stereo)", "melting point": 95.2}, {"smiles": "CN1c2ccc(-c3ccc4ccccc4c3)cc2S(=O)(=O)c2cc(-c3ccc4ccccc4c3)ccc21", "melting point": "328 to 332"}, {"smiles": "CCC(C=O)(CC)SN(C)C(=O)ON=C1SC(C)(C)C(=O)N1C", "melting point": "105 to 106"}, {"smiles": "c1ccc2c(NC3CCCC3)nnc(Cc3ccncc3)c2c1", "melting point": "163 to 165"}, {"smiles": "O=C(O)Cc1cccc(F)c1OCCCc1cn(-c2ccc(C(F)(F)F)cn2)nc1C1CCCCC1", "melting point": "149 to 150"}, {"smiles": "CC(C)c1ccccc1Sc1c(O)cc(-c2ccc(OCC(=O)O)cc2)oc1=O", "melting point": 217}, {"smiles": "Cc1cc2ccccc2c(-c2ccc(I)cc2)n1", "melting point": "146 to 147"}, {"smiles": "Cc1ccc(C(O)c2ccc(N)cc2)nc1", "note": "(stereo not drawn)", "melting point": "114 to 115"}, {"smiles": "NOC(=O)C(=C(C(=O)C(F)(F)F)c1ccccc1)c1ccccc1", "melting point": 175}]}]}
